Structures are written as SMILES.

For this experiment, the target named is T1, human V1a receptor (Homo sapiens, UniProt P37288).
T1 construct: expressed in transfected cells; host or cells: HEK293 cells, transiently transfected; cell membranes
T1 sequence (P37288 whole entry): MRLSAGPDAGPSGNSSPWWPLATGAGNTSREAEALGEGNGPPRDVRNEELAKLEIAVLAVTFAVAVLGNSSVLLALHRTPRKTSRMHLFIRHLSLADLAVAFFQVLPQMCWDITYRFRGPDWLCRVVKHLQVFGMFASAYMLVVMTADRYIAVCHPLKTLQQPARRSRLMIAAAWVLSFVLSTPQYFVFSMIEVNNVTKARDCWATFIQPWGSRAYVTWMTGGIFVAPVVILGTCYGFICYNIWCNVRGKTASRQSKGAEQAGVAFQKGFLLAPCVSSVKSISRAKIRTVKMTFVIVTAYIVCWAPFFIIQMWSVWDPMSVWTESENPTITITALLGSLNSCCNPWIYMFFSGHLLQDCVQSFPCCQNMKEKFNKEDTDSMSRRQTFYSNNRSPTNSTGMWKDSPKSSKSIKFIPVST
The experiment is described as follows: human V1a receptor binding studies (3H-Vasopressin SPA, HEK293 cell membranes). As to conditions: competition with 3H-Vasopressin on membranes of HEK293 cells transiently transfected with human V1a receptor; Ki by Cheng-Prussoff equation; read-out: pKi (hV1a) (converted). On the procedure:
The human V1a receptor was cloned by RT-PCR from total human liver RNA. The coding sequence was subcloned in an expression vector after sequencing to confirm the identity of the amplified sequence. […] Cell membranes were prepared from HEK293 cells transiently transfected with the expression vector and grown in 20 liter fermenters with the following protocol.
50 g of cells are re-suspended in 30 ml freshly prepared ice cold Lysis buffer (50 mM HEPES, 1 mM EDTA, 10 mM MgCl2 adjusted to pH= 7.4 + complete cocktail of protease inhibitor (Roche Diagnostics)). Homogenized with Polytron for Imin and sonicated on ice for 2x 2 minutes at 80% intensity (Vibracell sonicator). The preparation is centrifuged 20 min at 500 g at 4° C., the pellet is discarded and the supernatant centrifuged 1 hour at 43 ′000g at 4° C. (19 ′000rpm). The pellet is re-suspended in 12.5 ml Lysis buffer+12.5 ml Sucrose 20% and homogenized using a Polytron for 1-2 min. The protein concentration is determined by the Bradford method and aliquots are stored at -80° C. until use. For binding studies 60 mg Yttrium silicate SPA beads (Amersham) are mixed with an aliquot of membrane in binding buffer (50 mM Tris, 120 mM NaCl, 5 mM KCl, 2 mM CaCl2, 10 mM MgCl2) for 15 minutes with mixing. 50 µl of bead/membrane mixture is then added to each well of a 96 well plate, followed by 50 µl of 4 nM 3H-Vasopressin (American Radiolabeled Chemicals). For total binding measurement 100 µl of binding buffer are added to the respective wells, for non-specific binding 100 µl of 8.4 mM cold vasopressin and for compound testing 100 µl of a serial dilution of each compound in 2% DMSO. The plate is incubated 1 h at room temperature, centrifuged 1 min at 1000 g and counted on a Packard Top-Count. Non-specific binding counts are subtracted from each well and data is normalized to the maximum specific binding set at 100%. To calculate an IC50 the curve is fitted using a non-linear regression model (XLfit) and the Ki is calculated using the Cheng-Prussoff equation.
Regarding `Cc1nnc([C@H]2CC[C@H](Oc3ccccn3)CC2)n1-c1ccccc1` [Example 5, trans((4-(5-Methyl-4-phenyl-4H-1,2,4-triazol-3-yl)cyclohexyl)oxy)pyridine], the Ki is 5.25 nM.
Regarding `Cc1ccc(-n2c(C)nnc2[C@H]2CC[C@H](Oc3cnc(C)cn3)CC2)cc1` [Example 71, transMethyl-5-[4-[5-methyl-4-(4-methylphenyl)-1,2,4-triazol-3-yl]cyclohexyl]oxypyrazine], the Ki is 17.8 nM.
The result for `C[S+]([O-])Cc1nnc([C@H]2CC[C@H](Oc3ccccn3)CC2)n1-c1ccc(Cl)cc1` (mixture of isomers) [Example 37, trans-(rac)-2-((4-(4-(4-Chlorophenyl)-5-((methylsulfinyl)methyl)-4H-1,2,4-triazol-3-yl)cyclohexyl)oxy)pyridine] reads 64.6 nM.
As to `Cc1nnc([C@H]2CC[C@H](Oc3ccccn3)CC2)n1-c1ncc(Cl)cc1F` [Example 24, transChloro-3-fluoro-2-(3-methyl(4-(pyridin-2-yloxy)cyclohexyl)-4H-1,2,4-triazol-4-yl)pyridine], the Ki was 61.7 nM.
Take `Cc1ccc(-n2c(C)nnc2[C@H]2CC[C@H](Oc3ccccn3)CC2)cc1F` [Example 20, trans((4-(4-(3-Fluoro-4-methylphenyl)-5-methyl-4H-1,2,4-triazol-3-yl)cyclohexyl)oxy)pyridine]: the Ki is 1.82 nM.
Consider `Cc1nnc([C@H]2CC[C@H](Oc3ccccn3)CC2)n1-c1ccc(Cl)cc1` [Example 3, trans(4-(4-(4-Chlorophenyl)-5-methyl-4H-1,2,4-triazol-3-yl)cyclohexyloxy)pyridine], for which the Ki is 0.912 nM.

The record behind these values is US20230202990A1, “CYCLOHEXYL SUBSTITUTED TRIAZOLES” (Hoffmann-La Roche Inc., priority 2020, published 2023).
